Series [1] concerns adult American dog tick (Dermacentor variabilis). Put plainly: Example 5: efficacy against adult American dog tick infestations on dogs. The format is in vivo. Here is the method:
(§1) The therapeutic (knockdown) and residual efficacy of 7 and 8, each administered orally at a point dose of either 25 mg/kg or 50 mg/kg bodyweight, was evaluated against adult tick (Dermacentor variabilis and Rhipicephalus sanguineus) infestations on dogs. Twenty (20) male and female beagle dogs were allocated to one of five treatment groups, four (4) dogs per group: Untreated control; 7, 25 mg/kg; 7, 50 mg/kg; 8, 25 mg/kg; and 8, 50 mg/kg. On Day −1, all dogs were infested with approximately 50 unfed, adult D. variabilis ticks. On Day 0, dogs were orally administered gelatin capsules containing either 7 or 8 (50% technical active, 47% microcrystalline cellulose and 3% croscarmellose sodium, w/w) so as to achieve the desired point dosages. Ticks were counted and classified on all dogs, but not removed, on Day 1 (approximately 24 hours after treatment). On Day 2, approximately 48 hours after treatment, ticks were counted, classified and removed. Dogs were re-infested with the same number of D. variabilis ticks on Days 5, 12 and 19 with corresponding 48 hour post-infestation tick counts on Days 7, 14 and 21. Dogs were infested with approximately 50 unfed, adult brown dog ticks (Rhipicephalus sanguineus; approximately 50% male and 50% female) on Days 15 and 28, with corresponding 48 hour post-infestation tick counts on Days 17 and 30. GM percent efficacy of treatments against both tick species was calculated using the following formula: […]

A short description of series [2]: Tolerability of oral treatment in dogs. The format is in vivo, beagle dogs. The method, then: The therapeutic (knockdown) and residual efficacy of 7, administered orally at a point dosages of 5 and 25 mg/kg bodyweight, was evaluated against adult American dog tick (D. variabilis) and cat flea (C. felis) infestations on dogs. Sixteen (16) male and female beagle dogs were allocated to one of four treatment groups: Untreated control group (n=4 dogs); 7, 5 mg/kg liquid oral dosage form (n=4 dogs); 7, 25 mg/kg liquid oral dosage form (n=4 dogs); and 7, 25 mg/kg solid oral dosage form. Liquid dosage forms were prepared by dissolving 7 in a solution of 55% polyethylene glycol-300, 35% propylene glycol and 10% water at 25 mg/ml. Solid oral dosage form was prepared by thoroughly mixing 7 with microcrystalline cellulose and croscarmellose sodium (50:47:3, w/w) and placing into size 00 gelatin capsules. On Day 0, all dogs were orally administered 7 at the prescribed point dosages. Twenty-four (24) hours before treatment (Day −1), all dogs were infested with approximately 50 unfed, adult-stage American dog ticks (D. variabilis; approximately 50% male and 50% female). On Day 2, approximately 48 hours after treatment, ticks were removed and counts were conducted to determine the number and life-status classification of ticks present on all dogs (normal, moribund or dead; attached or detached). For all groups, dogs were re-infested with approximately 50 unfed, adult D. variabilis ticks on Days 5 and 12, with tick classification, counts and removal on Days 7 and 14 (approximately 48 hours after each infestation). For negative control and 7 (25 mg/kg solid oral dosage form) groups, dogs were re-infested with approximately 50 unfed, adult D. variabilis ticks on Days 19 and 28, with tick classification, counts and removal on Days 21 and 30. Immediately following removal of ticks on Day 30, dogs in the negative control and 7 (25 mg/kg solid oral dosage form) groups were infested with approximately 100 unfed, adult cat fleas (C. felis). Flea counts were conducted approximately 48 hours later, on Day 32.
as §1
The efficacy of 7, administered orally at a point dose of 25 mg/kg bodyweight, was evaluated against adult tick (Dermacentor variabilis) infestations. Twelve (12) male and female beagle dogs were allocated to three treatment groups: Untreated, negative control A; 7 group B; and 7 group C (n=4 dogs per group). Dogs were infested with approximately 50 unfed, adult D. variabilis ticks on Days −1, 5, 12, 19 and 28. […]

For series [3], the system named is brown dog tick (Rhipicephalus sanguineus). Nature of the series: Example 5: efficacy against brown dog tick infestations on dogs. In kind it is in vivo. The method, then: as §1
In series [4] the test system is Lone star tick larvae (Amblyomma americanum). Put plainly: Larval immersion microassay against larval-stage Lone star ticks. The settings on record: for mortality at 300 µM: Amblyomma americanum, 24 h, read-out: activity (percent larval mortality). Here is the method: The larval immersion microassay was conducted as described in detail in White, et al., J. Med. Entomol. […] Compounds of the invention were formulated in dimethylsulfoxide (DMSO) to prepare a stock solution at a concentration of at least 10 mM. […] Approximately 30-50 Lone star tick larvae (Amblyomma americanum) were submerged into each well containing compounds. After a 30 minute immersion period, larvae were removed with a wide-bore pipette tip in 0.05 ml of fluid, dispensed into a commercial paper tissue biopsy bag which was sealed at the top with a plastic dialysis clip, inverted and allowed to air dry for 60 minutes. Bags containing larvae were then incubated at approximately 27 degrees Celsius and >90% relative humidity. After 24 hours, bags were opened, live and dead larvae were counted and percent larval mortality was calculated.
7 contains one chiral center, and is therefore a racemic mixture comprised of approximately 50% R- and 50% S-enantiomer. In vitro and surrogate animal (rat) studies were conducted to evaluate the biological activity of the R- and S-enantiomers of 7. For the in vitro study, larvae of the Lone star tick (Amblyomma americanum) were exposed to 17 (S-enantiomer) and 18 (R-enantiomer) using the larval immersion microassay at a concentration of no greater than 0.3 mM. Following exposure, larvae were removed, transferred to a tissue biopsy bag and incubated at approximately 27 degrees Celsius and >90% relative humidity. After 24 hours, biopsy bags were opened and the numbers of live and dead larvae were determined.

Series [5] deals with Dermacentor variabilis tick nymphs. Put plainly: Efficacy against nymphal-stage American dog ticks on rats. In kind it is in vivo. Here is the method: Evaluations were conducted using a modified version of the assay as described in Gutierrez et al., J. Med. Entomol. 43(3): 526-532 (2006). This assay may be modified by simply using different tick species (the reference describes Amblyomma americanum ticks), such as Dermacentor variabilis or Rhipicephalus sanguineus ticks, as well as different life-stages (larval, nymphal or adult). Further, the reference describes using topical application methods, but oral, transdermal and subcutaneous injection routes of administration may be used.
In these studies, adult male or female rats, approximately 300 grams in size, were randomly assigned to a treatment group or a control (untreated negative control or fipronil positive control) group. Each group consisted of three (3) to five (5) rats. […] On Day 2, approximately forty-eight (48) hours after treatment, live and dead ticks were removed from animals and counted.
Live tick counts were transformed using the natural logarithm transformation plus one (Ln count+1); addition of one to each count served to adjust for counts that were zero. […] GM percent efficacy of treatments was calculated using the following formula:
Enantiomers were evaluated for activity against American dog tick (Dermacentor variabilis) nymphs on rats. […] On Day 2, approximately forty-eight (48) hours after treatment, live and dead ticks were removed from animals and counted. […]

Series [6] is described as follows: Clinical signs / tolerability in rats. The format is in vivo. The settings on record: oral ≦5 mg/kg, Example 8.
Series [7] deals with adult American dog tick (Dermacentor variabilis). Put plainly: Example 9: efficacy against adult American dog tick infestations on dogs. In kind it is in vivo. The settings on record: 50 mg/kg oral. The method, then:
(§2) The therapeutic (knockdown) and residual efficacy of 17, administered orally at a point dose of 50 mg/kg bodyweight, was evaluated against adult tick (Dermacentor variabilis and Rhipicephalus sanguineus) and adult cat flea (Ctenocephalides felis) infestations on dogs. Eight (8) male and female beagle dogs were allocated to either an untreated, negative control group or 17 group (n=4 dogs per group). Dogs were infested with approximately 50 unfed, adult D. variabilis ticks on Days −1, 5, 12, 19, and 28. On Day 0, dogs were orally administered gelatin capsules containing 17 (50% technical active, 47% microcrystalline cellulose and 3% croscarmellose sodium, w/w) at a point dose of 50 mg/kg. D. variabilis tick counts and classification were conducted on Day 1 (thumb count, approximately 24 hours after treatment) and Days 2, 7, 14, 21 and 30 (approximately 48 hours after treatment). Following removal of D. variabilis ticks on Day 30, all dogs were co-infested with approximately 50 unfed, adult brown dog ticks (R. sanguineus) and approximately 100 unfed, adult cat fleas (C. felis). Brown dog tick and cat flea counts were conducted on Day 32 (approximately 48 hours after infestation). GM percent efficacy of treatments against both tick species and fleas was calculated using the following formula: […]

The test system of series [8] is brown dog tick (Rhipicephalus sanguineus). Put plainly: Example 9: efficacy against brown dog tick infestations on dogs. In kind it is in vivo. The settings on record: 50 mg/kg oral, Day 32. The method, then:
as §2

Series [9] has as its system cat flea (Ctenocephalides felis). Put plainly: Example 9: efficacy against cat flea infestations on dogs. In kind it is in vivo. As to conditions: 50 mg/kg oral, Day 32. The method, then: as §2

As for `CC1(C)OB(O)c2ccc(C3=NOC(c4cc(Cl)c(F)c(Cl)c4)(C(F)(F)F)C3)cc21` (stereo not shown) [Compound 8, 5-(5-(3,5-dichloro-4-fluorophenyl)-5-(trifluoromethyl)-4,5-dihydroisoxazol-3-yl)-3,3-dimethyl-benzo[c][1,2]oxaborol-1(3H)-ol], the “% efficacy” value is recorded as “(81.0) %” in series [1] (25 mg/kg oral capsule, Day 1); “(85.0) %” in series [1] (25 mg/kg oral capsule, Day 14); “(79.3) %” in series [1] (25 mg/kg oral capsule, Day 21); “(80.9) %” in series [1] (50 mg/kg oral capsule, Day 1); “(80.4) %” in series [1] (50 mg/kg oral capsule, Day 14); “(75.1) %” in series [1] (50 mg/kg oral capsule, Day 21). The “% efficacy” value in series [3] (25 mg/kg oral capsule, Day 17) is “(73.4) %”; in [3] (50 mg/kg oral capsule, Day 17), “(80.2) %”; in series [3] (50 mg/kg oral capsule, Day 30), “(42.1) %”. Further, the “Geometric mean group live tick count” value in [1] (25 mg/kg oral capsule, Day 1) came out at 2.0; in series [1] (25 mg/kg oral capsule, Day 2), 0.0; in series [1] (25 mg/kg oral capsule, Day 7), 1.5; in [1] (25 mg/kg oral capsule, Day 14) it was 2.5; in [1] (25 mg/kg oral capsule, Day 21), 3.4; in series [1] (50 mg/kg oral capsule, Day 1) it was 2.0. The “Geometric mean group live tick count” value in series [1] (50 mg/kg oral capsule, Day 2) amounted to 0.0; in series [1] (50 mg/kg oral capsule, Day 7), 0.6; in series [1] (50 mg/kg oral capsule, Day 14), 3.2; in series [1] (50 mg/kg oral capsule, Day 21) it was 4.0; in series [3] (25 mg/kg oral capsule, Day 17), 7.2; in series [3] (50 mg/kg oral capsule, Day 17), 5.4. Also, the “Geometric mean group live tick count” value in series [3] (50 mg/kg oral capsule, Day 30) was determined as 21.5. In addition, the tolerability result in series [2] (oral 25 or 50 mg/kg, Example 5) was “well tolerated”. The mortality at 300 µM in [4] is no less than 80%.

In the case of `CC1(C)OB(O)c2ccc(C3=NO[C@](c4cc(Cl)c(Cl)c(Cl)c4)(C(F)(F)F)C3)cc21` [Compound 18, (R)-3,3-Dimethyl-5-(5-(3,4,5-trichlorophenyl)-5-(trifluoromethyl)-4,5-dihydroisoxazol-3-yl)benzo[c][1,2]oxaborol-1(3H)-ol], in series [5] (oral point doses of ≦5 mg/kg, D. variabilis nymphs, 48 hours after treatment, 5 mg/kg), the “% Efficacy at Dose of ≦5 mg/kg” value is given as 10.7%. Further, in [6], the tolerability entry is listed as “well tolerated”. In series [4] (0.3 mM, A. americanum larvae, counted after 24 hours), the “In vitro activity at 0.3 mM” value came to 0.0%.

Consider `CC1(C)OB(O)c2ccc(C3=NO[C@@](c4cc(Cl)c(Cl)c(Cl)c4)(C(F)(F)F)C3)cc21` [Compound 17, (S)-3,3-Dimethyl-5-(5-(3,4,5-trichlorophenyl)-5-(trifluoromethyl)-4,5-dihydroisoxazol-3-yl)benzo[c][1,2]oxaborol-1(3H)-ol], for which the “Geometric mean group live tick count” value in series [7] (Day 1) is on record as 0.7; in series [7] (Day 2) it was 0.0; in [7] (Day 7), 0.0; in series [7] (Day 14) it was 1.2; in [7] (Day 21), 0.0; in series [7] (Day 30) it was 1.9. Moreover, the “Geometric mean group live tick count” value in series [8] was found to be 1.9. The “% efficacy” value in series [7] (Day 7) is “(100) %”; in series [7] (Day 14), “(96.7) %”; in [7] (Day 21), “(100) %”. Also, the residual efficacy in series [7] (through Day 21) is recorded as 97-100%. Further, the tolerability entry is “well tolerated” in [6] and “well tolerated” in [2] (oral 50 mg/kg, Example 9). The “Geometric mean group live flea count” value in series [9] is on record as 0.0. Besides, the mortality at 300 µM in series [4] was no less than 80%.

Turning to `N#Cc1nn(-c2c(Cl)cc(C(F)(F)F)cc2Cl)c(N)c1[S+]([O-])C(F)(F)F` (stereo not shown) [Fipronil, reference compound], the “efficacy (% reduction in live tick counts)” value in [5] (positive control, oral 10 mg/kg bodyweight, all studies) is greater than 95%.

The values above are taken from patent US9156860B2, “Boron-containing small molecules” (Anacor Pharmaceuticals, Inc., priority 2011, dated 2015).
